Measurements as given in US7166622B2, “Substituted phenylsulfonamide inhibitors of beta amyloid production” (Wyeth, priority 2002, dated 2007).

Assays:
beta amyloid production = test: Repressor Release Assay (RRA); assay type: cell-based; details: for fold induction at 20 µg/mL: Conc 20 μg/ml; for fold induction at 10 µg/mL / APPI Fold Increase / APPI % of Example #98: Conc 10 μg/ml; for APPI % of Example #98: relative to Example 98
Outline: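 CHO-K1 cells transiently co-transfected with pRSVO-luc and an APP-lacI construct, replated, then treated in duplicate for 36-48 h at 37 °C, 5% CO2. Compounds diluted in 25 mM Hepes, with Hepes/1% DMSO as diluent control. Luciferase read-out in relative light units; toxicity scored 1 non-toxic, 0 toxic.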

CHO-K1 cells = test: Toxicity in RRA (loss of luciferase signal); details: toxicity = loss of signal (<0.75 fold increase)
Protocol: The beta amyloid inhibitory activity of the compounds of the present invention was determined using the Repressor Release Assay (RRA).
“Fold Increase” refers to the amount of luciferase activity (measured in relative light units) over diluent control. “SEM” refers to the standard error of the mean for fold increase.

[1] = luciferase activity over diluent control, read-out: APPI Fold Increase
[2] = luciferase activity over diluent control

CC[C@H](C)[C@@H](CO)NS(=O)(=O)c1ccc(Cl)c(N)c1 [Example 14, 3-Amino-4-chloro-N-[(1S,2S)-1-(hydroxymethyl)-2-methylbutyl]benzenesulfonamide]
fold induction at 20 µg/mL (beta amyloid production; [1]): 1.9 | melting point: 89 to 92 °C | (%)APPI Toxicity (CHO-K1 cells; Conc 20 μg/ml): 1 (1=non-toxic)

C=CCCC(O)(CCC=C)[C@@H](NS(=O)(=O)c1cccc(Cl)c1)[C@@H](C)CC [Example 260, N-{(1S)-2-(3-butenyl)-2-hydroxy-1-[(1S)-1-methylpropyl]-5-hexenyl}-3-chlorobenzenesulfonamide]
fold induction at 3 µg/mL (beta amyloid production; Conc 3 μg/ml, luciferase activity over diluent control, read-out: APPI Fold Increase): 1.5 | fold induction at 10 µg/mL (beta amyloid production; [1]): 6.23 | (%)APPI Toxicity (CHO-K1 cells; Conc 3 μg/ml): 1 (1=non-toxic) | (%)APPI Toxicity (CHO-K1 cells; Conc 10 μg/ml): 1 (1=non-toxic)

CCCCCCC(O)(CCCCCC)[C@@H](NS(=O)(=O)c1ccccc1F)[C@@H](C)CC [Example 261, 2-fluoro-N-{(1S)-2-hexyl-2-hydroxy-1-[(18)-1-methylpropyl]octyl}benzenesulfonamide]
APPI Fold Increase (beta amyloid production; [2]): 3.5 fold | APPI % of Example #98 (beta amyloid production): 104.4% | (%)APPI Toxicity (CHO-K1 cells; Conc 10 μg/ml): 1 (1=non-toxic)

CCCCCC(O)(CCCCC)[C@@H](NS(=O)(=O)c1ccccc1F)[C@@H](C)CC [Example 262, 2-fluoro-N-{(1S)-2-hydroxy-1-[(1S)-1-methylpropyl]-2-pentylheptyl}benzenesulfonamide]
fold induction at 10 µg/mL (beta amyloid production; [1]): 2.2 | (%)APPI Toxicity (CHO-K1 cells; Conc 10 μg/ml): 1 (1=non-toxic)

CC[C@H](C)[C@H](NS(=O)(=O)c1ccccc1F)C(O)(c1ccccc1)c1ccccc1 [Example 263, 2-fluoro-N-{(1S,2 S)-1-[hydroxy (diphenyl)methyl]-2-methylbutyl}benzenesulfonamide]
fold induction at 10 µg/mL (beta amyloid production; [1]): 1.57 | (%)APPI Toxicity (CHO-K1 cells; Conc 10 μg/ml): 1 (1=non-toxic)

C=CCC(O)(CC=C)[C@@H](NS(=O)(=O)c1ccccc1F)[C@@H](C)CC [Example 264, N-{(1S)-2-allyl-2-hydroxy-1-[(1S)-1-methylpropyl]-4-pentenyl}-2-fluorobenzenesulfonamide]
fold induction at 10 µg/mL (beta amyloid production; [1]): 2 | (%)APPI Toxicity (CHO-K1 cells; Conc 10 μg/ml): 1 (1=non-toxic)

CC[C@H](C)[C@H](NS(=O)(=O)c1ccccc1F)C(O)(CC)CC [Example 265, N-{(1S)-2-ethyl-2-hydroxy-1-[(1S)-1-methylpropyl]butyl}-2-fluorobenzenesulfonamide]
fold induction at 10 µg/mL (beta amyloid production; [1]): 1.78 | (%)APPI Toxicity (CHO-K1 cells; Conc 10 μg/ml): 1 (1=non-toxic)

CC[C@H](C)[C@H](NS(=O)(=O)c1ccccc1F)C(O)(c1ccc(F)cc1)c1ccc(F)cc1 [Example 266, N-{(1S,2S)-1-[bis(4-fluorophenyl)(hydroxy)methyl]-2-methylbutyl}-2-fluorobenzenesulfonamide]
fold induction at 10 µg/mL (beta amyloid production; [1]): 1.57 | (%)APPI Toxicity (CHO-K1 cells; Conc 10 μg/ml): 1 (1=non-toxic)

CC[C@H](C)[C@H](NS(=O)(=O)c1ccccc1F)C(O)(c1ccc(Cl)cc1)c1ccc(Cl)cc1 [Example 267, N-{(1S,2S)-1-[bis(4-chlorophenyl)(hydroxy)methyl]-2-methylbutyl}-2-fluoro benzenesulfonamide]
APPI Fold Increase (beta amyloid production; [2]): 1.59 fold | APPI % of Example #98 (beta amyloid production): 58.97% | (%)APPI Toxicity (CHO-K1 cells; Conc 10 μg/ml): 1 (1=non-toxic)

C=C(C)C(O)(C(=C)C)[C@@H](NS(=O)(=O)c1ccccc1F)[C@@H](C)CC [Example 268, 2-fluoro-N-{(1S)-2-hydroxy-2-isopropenyl-3-methyl-1-[(1S)-1-methylpropyl]-3-butenyl}benzenesulfonamide]
fold induction at 10 µg/mL (beta amyloid production; [1]): 1.75 | (%)APPI Toxicity (CHO-K1 cells; Conc 10 μg/ml): 1 (1=non-toxic)

CC[C@H](C)[C@H](NS(=O)(=O)c1ccccc1F)C(O)(c1ccc(OC)cc1)c1ccc(OC)cc1 [Example 269, 2-fluoro-N-((1S,2S)-1-{hydroxy[bis(4-methoxyphenyl)]methyl}-2-methylbutyl)benzenesulfonamide]
fold induction at 10 µg/mL (beta amyloid production; [1]): 1.58 | (%)APPI Toxicity (CHO-K1 cells; Conc 10 μg/ml): 1 (1=non-toxic)

C/C=C(\C)C(O)(/C(C)=C/C)[C@@H](NS(=O)(=O)c1ccccc1F)[C@@H](C)CC (stereo partly drawn) [Example 270, 2-fluoro-N-{(1S,3E)-2-hydroxy-3-methyl-2-[(1E)-1-methyl-1-propenyl]-1-[(1S)-1-methylpropyl]-3-pentenyl}benzenesulfonamide]
fold induction at 10 µg/mL (beta amyloid production; [1]): 1.86 | (%)APPI Toxicity (CHO-K1 cells; Conc 10 μg/ml): 1 (1=non-toxic)

C=CCCC(O)(CCC=C)[C@@H](NS(=O)(=O)c1ccccc1F)[C@@H](C)CC [Example 271, N-{(1S)-2-(3-butenyl)-2-hydroxy-1-[(1S)-1-methylpropyl]-5-hexenyl}-2-fluorobenzenesulfonamide]
fold induction at 10 µg/mL (beta amyloid production; [1]): 1.82 | (%)APPI Toxicity (CHO-K1 cells; Conc 10 μg/ml): 1 (1=non-toxic)

O=S(=O)(N[C@H](CO)C1CCCCC1)c1ccc(Cl)cc1 [Example 272, 4-Chloro-N-[(1S)-1-cyclohexyl-2-hydroxyethyl]benzenesulfonamide]
fold induction at 20 µg/mL (beta amyloid production; [1]): 2.3 | melting point: 115 to 118 °C | (%)APPI Toxicity (CHO-K1 cells; Conc 20 μg/ml): 1 (1=non-toxic)

O=S(=O)(N[C@H](CO)c1ccccc1)c1ccc(Cl)cc1 [Example 273, 4-Chloro-N-[(1S)-2-hydroxy-1-phenylethyl]benzenesulfonamide]
fold induction at 20 µg/mL (beta amyloid production; [1]): 1.5 | melting point: 127 to 128 °C | (%)APPI Toxicity (CHO-K1 cells; Conc 20 μg/ml): 1 (1=non-toxic)

CC(C)[C@@H](CO)NS(=O)(=O)c1ccc(Cl)cc1 [Example 274, 4-Chloro-N-[(1S)-1-(hydroxymethyl)-2-methylpropyl]benzenesulfonamide]
fold induction at 20 µg/mL (beta amyloid production; [1]): 2.1 | melting point: 83 to 85 °C | (%)APPI Toxicity (CHO-K1 cells; Conc 20 μg/ml): 1 (1=non-toxic)

CC(C)[C@@H](CO)NS(=O)(=O)c1ccc(Br)cc1 [Example 275, 4-Bromo-N-[(1S)-1-(hydroxymethyl)-2-methylpropyl]benzenesulfonamide]
fold induction at 20 µg/mL (beta amyloid production; [1]): 2 | melting point: 89 to 94 °C | (%)APPI Toxicity (CHO-K1 cells; Conc 20 μg/ml): 1 (1=non-toxic)

CC[C@H](C)[C@@H](CO)NS(=O)(=O)c1ccc(I)cc1 [Example 276, 4-Iodo-N-[(1S,2S)-1-(hydroxymethyl)-2-methylbutyl]benzenesulfonamide]
fold induction at 20 µg/mL (beta amyloid production; [1]): 2 | melting point: 118 to 120 °C | (%)APPI Toxicity (CHO-K1 cells; Conc 20 μg/ml): 1 (1=non-toxic)

CC(C)(C)[C@@H](CO)NS(=O)(=O)c1ccc(Cl)cc1 [Example 277, 4-Chloro-N-[(1S)-1-(hydroxymethyl)-2,2-dimethylpropyl]benzenesulfonamide]
fold induction at 20 µg/mL (beta amyloid production; [1]): 1.5 | melting point: 128 to 130 °C | (%)APPI Toxicity (CHO-K1 cells; Conc 20 μg/ml): 1 (1=non-toxic)

N-{(1S)-2-allyl-2-hydroxy 1-[(1S)-1-methylpropyl]-4-pentenyl}-4-bromo benzenesulfonamide [Example 216]
APPI Fold Increase (beta amyloid production; [2]): 1.58 fold | APPI % of Example #98 (beta amyloid production): 72.76% | (%)APPI Toxicity (CHO-K1 cells; Conc 10 μg/ml): 1 (1=non-toxic)
